Test results: US9616062B2, “Cyclin dependent kinase inhibitors and methods of use” (priority 2009, dated 2017)

Assays:
[1] = tested on: renal cell proliferation in female FVB wt mice; assay: EdU incorporation into whole kidney of cisplatin-treated mice (flow cytometry); assay type: in vivo, mouse
Method: FIG. 6: CDK4/6 inhibition blocks EdU incorporation into whole kidney in mice treated with cisplatin. […] EdU ([…]) was given IP every 24 hours prior to sacrifice. Kidneys were collected and single cell isolates were prepared and stained for EdU incorporation. Proliferation was assessed by flow cytometry. Data represents % of EdU staining in untreated, cisplatin-treated and cisplatin/PD0332991 treated cells.
[…] Proliferation was assessed by using BrdU (1 mg IP injection) every 6 hours for 24 hours prior to sacrifice or […] (0.1 mg IP) every 24 hours for 3 days prior to sacrifice.
Kidneys were harvested from mice and single cells were isolated using a gentleMACS™ tissue dissociator (Miltinyi Biotec, Bergisch Gladbach, Germany). Briefly, kidneys were cut into small pieces and placed in 10 ml collagenase (1 mg/ml) in a gentleMACS™ C tube (Miltinyi Biotec, Bergisch Gladbach, Germany). Tissue was dissociated following the manufacturer's recommendations (Miltinyi Biotec, Bergisch Gladbach, Germany). Cells were then incubated for 5 minutes in ACK buffer to lyse red blood cells, filtered and pelleted. Cells were resuspended in 4% paraformaldehyde and stored overnight at 4° C. For quantification of EdU incorporation, the cells were fixed, permeabilized, and stained with an APC EdU Flow Kit according to the manufacturer's instruction (Invitrogen Corporation, Carlsbad, Calif., United States of America). Flow cytometric analysis was performed using a CyAn ADP (Dako, Glostrup, Denmark). For each sample, a minimum of 500,000 cells was analyzed and the data were analyzed using FlowJo software (Tree Star, Inc., Ashland, Oreg., United States of America).
The kidney is relatively quiescent until challenged by a renal insult. Therefore, to determine whether renal cell proliferation was dependent on CDK4/6 activity in vivo, renal cell proliferation was stimulated by treating female FVB wt mice with cisplatin, a known nephrotoxic chemotherapeutic agent. At time 0 hr, mice were started on chow delivering PD0332991 100 mg/kg per day or standard chow with no drug. […]

[2] = tested on: germinal center formation; assay: Germinal center formation in mice (Ki67 immunohistochemistry); assay type: in vivo, mouse; conditions: 150 mg/kg by oral gavage
Method: Mice were treated with PD0332991 (150 mg/kg by oral gavage). Germinal center formation was assessed by Ki67 immunohistochemistry.
Acute, pharmacologic inhibition of CDK4/6 suppresses lymphocyte proliferation with the most pronounced effect on memory T cell homeostatic proliferation and germinal center formation in mice. To determine whether inhibiting CDK4/6 affects memory cell generation and maintenance, mice were treated with selective CDK4/6 inhibitors, PD 0332991 or an unrelated selective CDK4/6 inhibitor, 2BrIC. 2BrIC was synthesized by OTAVA Chemicals (Kiev, Ukraine) and can be prepared according to methods described in Zhu et al., J. Med. Chem. 46, 2027-2030 (2003).
Cohorts of wild type mice were treated with vehicle or a CDK4/6 inhibitor as in FIG. 11. […] Unstimulated mice were treated for 24 hours with PD0332991 and homeostatic B cell proliferation measured by Ki67 staining after appropriate sorting. Similar results were obtained using BrdU incorporation to measure splenic B cell proliferation. Similar experiments were undertaken in human cells with B cell receptor stimulation as described in FIG. 12.

CC(=O)c1c(C)c2cnc(Nc3ccc(N4CCNCC4)cn3)nc2n(C2CCCC2)c1=O [PD0332991, 6-acetyl-8-cyclopentyl-5-methyl-2-(5-piperazin-1-yl-pyridin-2-ylamino)-8H-pyrido-[2,3-d]-pyrimidin-7-one]
reduction in cell proliferation ([1]; cisplatin and PD0332991 vs cisplatin and vehicle control): 88%
cells labeled with EdU ([1]; kidney single cell suspension, 72 h, cisplatin 15 mg/kg IP, PD0332991 100 mg/kg per day in chow or no drug): approximately 2%
germinal center formation (Ki67) [2]: selectively suppresses germinal center formation
